Test results reported in US9302991B2, “Arylamide derivatives as TTX-S blockers” (RaQualia Pharma Inc., priority 2010, dated 2016).

Legend:
[1] = target: T1, human Nav1.7 channels (Homo sapiens, UniProt Q15858); test: FRET assay, human Nav1.7 (EFS on FDSS); format: cell-based; conditions: CHO cells expressing human Nav1.7, read-out: IC50 against Nav1.7
T1 construct: expressed in transfected cells; host or cells: CHO
In short: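 IC50 was derived from normalized 440 nm fluorescence ratios of the EFS-evoked membrane-potential response read on FDSS. Recombinant CHO cells were sequentially dye-loaded with coumarin/oxonol FRET pair at room temperature in pH 7.4 buffer before compound addition.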

[2] = target: T2, human Nav1.3 channels (Homo sapiens, UniProt Q9NY46); test: FRET assay, human Nav1.3 (EFS on FDSS); format: cell-based; conditions: HEK293 cells expressing human Nav1.3, read-out: IC50 against Nav1.3
T2 construct: expressed in transfected cells; host or cells: HEK293
T2 sequence (Q9NY46 whole entry): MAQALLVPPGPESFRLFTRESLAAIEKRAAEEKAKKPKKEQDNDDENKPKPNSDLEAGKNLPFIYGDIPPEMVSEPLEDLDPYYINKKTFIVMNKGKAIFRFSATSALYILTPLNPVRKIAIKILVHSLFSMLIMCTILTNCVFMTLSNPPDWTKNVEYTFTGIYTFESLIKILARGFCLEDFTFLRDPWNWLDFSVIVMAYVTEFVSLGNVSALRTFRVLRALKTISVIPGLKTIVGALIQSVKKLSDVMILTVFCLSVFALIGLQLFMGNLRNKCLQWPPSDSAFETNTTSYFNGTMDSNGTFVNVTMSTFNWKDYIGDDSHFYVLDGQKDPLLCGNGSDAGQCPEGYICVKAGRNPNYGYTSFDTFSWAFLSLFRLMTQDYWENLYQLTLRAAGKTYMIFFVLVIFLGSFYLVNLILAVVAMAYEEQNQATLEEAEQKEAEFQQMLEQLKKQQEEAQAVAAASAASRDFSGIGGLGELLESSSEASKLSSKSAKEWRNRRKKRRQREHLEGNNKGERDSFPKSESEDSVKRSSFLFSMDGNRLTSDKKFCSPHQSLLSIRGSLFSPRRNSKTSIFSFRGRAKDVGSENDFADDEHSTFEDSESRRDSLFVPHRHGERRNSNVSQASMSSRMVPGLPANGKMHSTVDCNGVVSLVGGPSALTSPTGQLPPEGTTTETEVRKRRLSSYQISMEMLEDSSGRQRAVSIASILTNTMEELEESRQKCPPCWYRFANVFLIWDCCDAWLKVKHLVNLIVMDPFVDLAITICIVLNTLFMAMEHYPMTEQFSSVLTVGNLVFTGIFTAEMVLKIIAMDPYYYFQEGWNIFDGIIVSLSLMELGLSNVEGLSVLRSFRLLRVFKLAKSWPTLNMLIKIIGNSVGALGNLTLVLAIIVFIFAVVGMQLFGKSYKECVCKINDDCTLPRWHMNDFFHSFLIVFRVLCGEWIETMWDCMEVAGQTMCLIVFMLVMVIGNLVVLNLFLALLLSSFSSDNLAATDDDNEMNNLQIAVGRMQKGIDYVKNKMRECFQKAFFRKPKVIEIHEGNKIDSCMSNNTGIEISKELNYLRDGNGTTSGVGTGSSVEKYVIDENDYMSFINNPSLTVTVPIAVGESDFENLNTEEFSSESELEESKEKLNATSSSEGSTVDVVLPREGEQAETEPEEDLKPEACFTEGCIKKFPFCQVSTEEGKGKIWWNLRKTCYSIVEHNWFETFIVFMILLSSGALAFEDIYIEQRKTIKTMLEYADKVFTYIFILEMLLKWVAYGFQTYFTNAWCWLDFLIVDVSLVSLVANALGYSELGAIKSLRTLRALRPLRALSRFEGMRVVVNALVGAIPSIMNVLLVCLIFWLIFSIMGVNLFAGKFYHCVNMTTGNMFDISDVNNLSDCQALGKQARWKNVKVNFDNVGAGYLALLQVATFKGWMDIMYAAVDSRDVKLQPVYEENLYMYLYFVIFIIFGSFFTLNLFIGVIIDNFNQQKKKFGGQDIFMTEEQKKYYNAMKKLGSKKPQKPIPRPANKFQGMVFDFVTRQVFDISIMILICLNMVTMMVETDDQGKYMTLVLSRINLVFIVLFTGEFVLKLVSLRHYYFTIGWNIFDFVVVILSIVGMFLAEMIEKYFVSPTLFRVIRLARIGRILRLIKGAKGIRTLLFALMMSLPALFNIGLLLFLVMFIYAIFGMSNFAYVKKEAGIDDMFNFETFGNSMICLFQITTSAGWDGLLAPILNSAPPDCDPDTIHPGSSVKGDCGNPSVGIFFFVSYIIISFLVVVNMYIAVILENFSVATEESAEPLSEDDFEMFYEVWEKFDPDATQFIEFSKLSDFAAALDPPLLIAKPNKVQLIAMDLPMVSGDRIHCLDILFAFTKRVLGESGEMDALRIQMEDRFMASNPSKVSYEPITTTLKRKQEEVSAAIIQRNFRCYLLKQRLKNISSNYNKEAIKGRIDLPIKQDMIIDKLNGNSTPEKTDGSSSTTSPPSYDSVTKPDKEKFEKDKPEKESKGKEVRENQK
In short: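 HEK293 cells expressing the channel, loaded with 10 microM CC2-DMPE then 15 microM DiSBAC2(3) plus 0.555 mM VABSC-1 in pH 7.4 HEPES buffer at room temperature. Membrane potential changes evoked by electrical field stimulation after compound addition; IC50 from 440 nm-normalized FRET ratios.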

T1 sequence (Q15858 whole entry): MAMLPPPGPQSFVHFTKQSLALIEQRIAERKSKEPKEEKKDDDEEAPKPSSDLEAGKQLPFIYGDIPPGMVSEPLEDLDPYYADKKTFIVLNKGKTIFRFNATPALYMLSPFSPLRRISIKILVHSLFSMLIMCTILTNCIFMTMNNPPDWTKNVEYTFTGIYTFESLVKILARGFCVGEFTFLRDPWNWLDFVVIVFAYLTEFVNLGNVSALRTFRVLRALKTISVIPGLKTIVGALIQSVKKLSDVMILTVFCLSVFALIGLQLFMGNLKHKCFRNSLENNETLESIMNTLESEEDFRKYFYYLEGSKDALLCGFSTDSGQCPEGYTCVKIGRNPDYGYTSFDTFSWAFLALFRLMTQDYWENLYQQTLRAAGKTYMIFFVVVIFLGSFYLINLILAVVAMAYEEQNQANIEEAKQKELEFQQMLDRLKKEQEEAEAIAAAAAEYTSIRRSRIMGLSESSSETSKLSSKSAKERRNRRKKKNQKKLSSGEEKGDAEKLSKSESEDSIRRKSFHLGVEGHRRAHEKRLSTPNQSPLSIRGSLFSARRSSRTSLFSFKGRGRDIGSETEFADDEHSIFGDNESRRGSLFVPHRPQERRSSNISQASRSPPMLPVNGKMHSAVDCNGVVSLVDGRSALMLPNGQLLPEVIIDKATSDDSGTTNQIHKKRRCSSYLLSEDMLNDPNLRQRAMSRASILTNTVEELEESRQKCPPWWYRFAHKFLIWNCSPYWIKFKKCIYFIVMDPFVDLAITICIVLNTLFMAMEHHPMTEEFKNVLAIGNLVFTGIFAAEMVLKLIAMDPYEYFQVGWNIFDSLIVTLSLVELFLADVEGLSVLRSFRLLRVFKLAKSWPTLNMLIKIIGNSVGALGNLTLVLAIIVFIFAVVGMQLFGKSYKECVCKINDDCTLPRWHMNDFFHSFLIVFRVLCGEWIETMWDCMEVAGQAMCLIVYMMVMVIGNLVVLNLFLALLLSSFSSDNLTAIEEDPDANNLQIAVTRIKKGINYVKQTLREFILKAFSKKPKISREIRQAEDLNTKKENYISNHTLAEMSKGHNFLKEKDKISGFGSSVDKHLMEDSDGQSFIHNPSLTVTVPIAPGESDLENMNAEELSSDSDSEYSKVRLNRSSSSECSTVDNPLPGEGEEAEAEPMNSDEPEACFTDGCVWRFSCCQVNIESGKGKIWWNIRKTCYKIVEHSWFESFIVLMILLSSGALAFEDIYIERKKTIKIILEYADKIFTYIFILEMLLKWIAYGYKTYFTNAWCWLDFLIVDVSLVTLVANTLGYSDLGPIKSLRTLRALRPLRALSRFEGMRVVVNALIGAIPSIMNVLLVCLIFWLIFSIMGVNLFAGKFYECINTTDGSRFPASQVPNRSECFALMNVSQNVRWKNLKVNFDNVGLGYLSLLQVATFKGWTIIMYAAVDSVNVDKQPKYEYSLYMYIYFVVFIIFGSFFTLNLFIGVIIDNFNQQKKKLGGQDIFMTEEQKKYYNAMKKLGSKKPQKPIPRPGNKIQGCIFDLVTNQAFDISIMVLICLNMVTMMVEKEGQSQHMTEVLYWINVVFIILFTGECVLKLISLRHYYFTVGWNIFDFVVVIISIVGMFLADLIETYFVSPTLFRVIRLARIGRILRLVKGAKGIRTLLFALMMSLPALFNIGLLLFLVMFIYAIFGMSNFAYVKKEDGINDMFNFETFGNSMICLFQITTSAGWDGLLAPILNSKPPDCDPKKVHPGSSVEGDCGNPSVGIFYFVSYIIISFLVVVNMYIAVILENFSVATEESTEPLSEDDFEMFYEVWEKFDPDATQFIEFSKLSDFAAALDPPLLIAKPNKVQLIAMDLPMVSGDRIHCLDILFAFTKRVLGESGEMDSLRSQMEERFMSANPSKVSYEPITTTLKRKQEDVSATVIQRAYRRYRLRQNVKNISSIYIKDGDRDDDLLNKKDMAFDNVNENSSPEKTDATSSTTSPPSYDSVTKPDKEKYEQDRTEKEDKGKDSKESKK

**Q.** Which IC50 [1] does the source give for `COc1cc(CNC(=O)c2cc(C)nc(NC(=O)C(C)C)c2)cnc1OCC(F)(F)F` [Example 492, 2-isobutyramido-N-((5-methoxy-6-(2,2,2-trifluoroethoxy)pyridin-3-yl)methyl)-6-methylisonicotinamide] here?
**A.** < 1000 nM

**Q.** What about the IC50 [2] of the same compound?
**A.** < 1000 nM

**Q.** `Cc1cc(C(=O)NCc2ccc(OC(F)(F)F)c(C)c2)cc(NC(=O)C(C)C)n1` [Example 809, 2-isobutyramido-6-methyl-N-(3-methyl-4-(trifluoromethoxy)benzyl)isonicotinamide] was tested. Which IC50 [1] did it give?
**A.** < 1000 nM

**Q.** And the IC50 [2]?
**A.** < 1000 nM

**Q.** With `CC(C)C(=O)Nc1cc(C(=O)NCc2cccc(C(F)(F)F)c2)ccn1` [Example 533, 2-isobutyramido-N-(3-(trifluoromethyl)benzyl)isonicotinamide] as the compound, how does the IC50 [1] read?
**A.** < 1000 nM

**Q.** What about the IC50 [2] of the same compound?
**A.** < 1000 nM

**Q.** For `Cc1cc(C(C)NC(=O)c2ccnc(NC(=O)C(C)C)c2)cnc1OCC(F)(F)C(F)F` (single isomer, unassigned) [Example 904, 2-isobutyramido-N-(1-(5-methyl-6-(2,2,3,3-tetrafluoropropoxy)pyridin-3-yl)ethyl)isonicotinamide], which IC50 [1] is on record?
**A.** < 1000 nM

**Q.** And the IC50 [2]?
**A.** < 1000 nM

**Q.** How did the IC50 [1] turn out when `CCC(=O)Nc1cc(C(=O)NC(C)c2cnc(OCC(F)F)c(C)c2)cc(C)n1` (single isomer, unassigned) [Example 554, N-(1-(6-(2,2-difluoroethoxy)-5-methylpyridin-3-yl)ethyl)-2-methyl-6-propionamidoisonicotinamide] was run?
**A.** < 1000 nM

**Q.** What about the IC50 [2] of the same compound?
**A.** < 1000 nM

**Q.** What does the source list for `CC(=O)Nc1nc(C)cc(C(=O)NC(C)c2cnc(OCC(F)(F)F)c(C)c2)n1` (single isomer, unassigned) [Example 235, 2-acetamido-6-methyl-N-(1-(5-methyl-6-(2,2,2-trifluoroethoxy)pyridin-3-yl)ethyl)pyrimidine-4-carboxamide]?
**A.** IC50 [1]: < 1000 nM; IC50 [2]: < 1000 nM

**Q.** How did the IC50 [1] turn out when `Cc1cc(C(C)NC(=O)c2ccnc(NC(=O)C3CC3)n2)cnc1OCC(F)F` (single isomer, unassigned) [Example 558, 2-(cyclopropanecarboxamido)-N-(1-(6-(2,2-difluoroethoxy)-5-methylpyridin-3-yl)ethyl)pyrimidine-4-carboxamide] was run?
**A.** < 1000 nM

**Q.** And the IC50 [2]?
**A.** < 1000 nM

**Q.** `Cc1cc(C(=O)NCc2cccc(OC(F)(F)F)c2)cc(NC(=O)C2CC2)n1` [Example 836, 2-(cyclopropanecarboxamido)-6-methyl-N-(3-(trifluoromethoxy)benzyl)isonicotinamide] was tested. Which IC50 [1] did it give?
**A.** < 1000 nM

**Q.** And the IC50 [2]?
**A.** < 1000 nM

**Q.** For `CCC(=O)Nc1nccc(C(=O)NC(C)c2cnc(OCC(F)(F)F)c(C)c2)n1` (single isomer, unassigned) [Example 223, N-(1-(5-methyl-6-(2,2,2-trifluoroethoxy)pyridin-3-yl)ethyl)-2-propionamidopyrimidine-4-carboxamide], which IC50 [1] is on record?
**A.** < 1000 nM

**Q.** And the IC50 [2]?
**A.** < 1000 nM

**Q.** For `CCOc1nc(OCC(F)(F)F)ccc1CNC(=O)c1cc(C)nc(NC(=O)C(C)C)n1` [Example 360, N-((2-ethoxy-6-(2,2,2-trifluoroethoxy)pyridin-3-yl)methyl)-2-isobutyramido-6-methylpyrimidine-4-carboxamide], which IC50 [1] is on record?
**A.** < 1000 nM

**Q.** What about the IC50 [2] of the same compound?
**A.** < 1000 nM

**Q.** Which results are given for `Cc1cc(CNC(=O)c2ccnc(NC(=O)C3CC3)n2)cnc1OCC(F)(F)C(F)F` [Example 943, 2-(cyclopropanecarboxamido)-N-((5-methyl-6-(2,2,3,3-tetrafluoropropoxy)pyridin-3-yl)methyl)pyrimidine-4-carboxamide]?
**A.** IC50 [1]: < 1000 nM; IC50 [2]: < 1000 nM

**Q.** What does the source list for `CCOc1nc(OCC(F)(F)F)ccc1CNC(=O)c1cc(C)nc(NC(=O)CC)n1` [Example 359, N-((2-ethoxy-6-(2,2,2-trifluoroethoxy)pyridin-3-yl)methyl)-6-methyl-2-propionamidopyrimidine-4-carboxamide]?
**A.** IC50 [1]: < 1000 nM; IC50 [2]: < 1000 nM

**Q.** With `Cc1cc(C(=O)NC(C)c2cnc(OCC(F)(F)F)c(C)c2)nc(NC(=O)C2CC2)n1` (single isomer, unassigned) [Example 228, 2-(cyclopropanecarboxamido)-6-methyl-N-(1-(5-methyl-6-(2,2,2-trifluoroethoxy)pyridin-3-yl)ethyl)pyrimidine-4-carboxamide] as the compound, how does the IC50 [1] read?
**A.** < 1000 nM

**Q.** What about the IC50 [2] of the same compound?
**A.** < 1000 nM

**Q.** With `CCC(=O)Nc1cc(C(=O)NCc2cccc(OC(F)(F)F)c2)ccn1` [Example 523, 2-propionamido-N-(3-(trifluoromethoxy)benzyl)isonicotinamide] as the compound, how does the IC50 [1] read?
**A.** < 1000 nM

**Q.** What about the IC50 [2] of the same compound?
**A.** < 1000 nM

**Q.** Which results are given for `CCC(=O)Nc1cc(C(=O)NCc2cnc(OCC(F)(F)F)c(C)c2)cc(C)n1` [Example 372, 2-methyl-N-((5-methyl-6-(2,2,2-trifluoroethoxy)pyridin-3-yl)methyl)-6-propionamidoisonicotinamide]?
**A.** IC50 [1]: < 1000 nM; IC50 [2]: < 1000 nM

**Q.** Which results are given for `Cc1cc(C(=O)NCc2cnc(OCC(F)(F)F)c(Br)c2)nc(NC(=O)C2CC2)n1` [Example 902, N-((5-bromo-6-(2,2,2-trifluoroethoxy)pyridin-3-yl)methyl)-2-(cyclopropanecarboxamido)-6-methylpyrimidine-4-carboxamide]?
**A.** IC50 [1]: < 1000 nM; IC50 [2]: < 1000 nM

**Q.** With `Cc1cc(C(=O)NCc2ccc(OCC(F)(F)F)c(C)c2)cc(NC(=O)C(C)C)n1` [Example 794, 2-isobutyramido-6-methyl-N-(3-methyl-4-(2,2,2-trifluoroethoxy)benzyl)isonicotinamide] as the compound, how does the IC50 [1] read?
**A.** < 1000 nM

**Q.** What about the IC50 [2] of the same compound?
**A.** < 1000 nM

**Q.** `O=C(NCc1ccc(OCC(F)(F)F)nc1)c1ccnc(NC(=O)C2CC2)c1` [Example 152, 2-(cyclopropanecarboxamido)-N-((6-(2,2,2-trifluoroethoxy)pyridin-3-yl)methyl)isonicotinamide] was tested. Which IC50 [1] did it give?
**A.** < 1000 nM

**Q.** And the IC50 [2]?
**A.** < 1000 nM

**Q.** `CCC(=O)Nc1cc(C(=O)NCc2ccc(OCC(F)(F)F)c(C)c2)cc(C)n1` [Example 793, 2-methyl-N-(3-methyl-4-(2,2,2-trifluoroethoxy)benzyl)-6-propionamidoisonicotinamide] was tested. Which IC50 [1] did it give?
**A.** < 1000 nM

**Q.** What about the IC50 [2] of the same compound?
**A.** < 1000 nM

**Q.** What does the source list for `COc1nc(OCC(F)(F)F)ccc1CNC(=O)c1ccnc(NC(C)=O)c1` [Example 148, 2-acetamido-N-((2-methoxy-6-(2,2,2-trifluoroethoxy)pyridin-3-yl)methyl)isonicotinamide]?
**A.** IC50 [1]: < 1000 nM; IC50 [2]: < 1000 nM

**Q.** For `Cc1cc(C(=O)NCc2ccc(OC(F)(F)F)c(C)c2)nc(NC(=O)C2CC2)n1` [Example 811, 2-(cyclopropanecarboxamido)-6-methyl-N-(3-methyl-4-(trifluoromethoxy)benzyl)pyrimidine-4-carboxamide], which IC50 [1] is on record?
**A.** < 1000 nM

**Q.** What about the IC50 [2] of the same compound?
**A.** < 1000 nM

**Q.** Which results are given for `CCC(=O)Nc1cc(C(=O)NCc2cnc(OCC(F)(F)F)c(Br)c2)ccn1` [Example 895, N-((5-bromo-6-(2,2,2-trifluoroethoxy)pyridin-3-yl)methyl)-2-propionamidoisonicotinamide]?
**A.** IC50 [1]: < 1000 nM; IC50 [2]: < 1000 nM

**Q.** How did the IC50 [1] turn out when `CCC(=O)Nc1nc(C)cc(C(=O)NCc2cnc(OCC(F)(F)F)c(C)c2)n1` [Example 364, 6-methyl-N-((5-methyl-6-(2,2,2-trifluoroethoxy)pyridin-3-yl)methyl)-2-propionamidopyrimidine-4-carboxamide] was run?
**A.** < 1000 nM

**Q.** And the IC50 [2]?
**A.** < 1000 nM

**Q.** Which results are given for `CCC(=O)Nc1cc(C(=O)NCc2ccc(OCC(F)(F)F)nc2OC)cc(C)n1` [Example 150, N-((2-methoxy-6-(2,2,2-trifluoroethoxy)pyridin-3-yl)methyl)-2-methyl-6-propionamidoisonicotinamide]?
**A.** IC50 [1]: < 1000 nM; IC50 [2]: < 1000 nM

**Q.** Which results are given for `CCCC(=O)Nc1cc(C(=O)NCc2cnc(OCC(F)F)c(C)c2)ccn1` [Example 757, 2-butyramido-N-((6-(2,2-difluoroethoxy)-5-methylpyridin-3-yl)methyl)isonicotinamide]?
**A.** IC50 [1]: < 1000 nM; IC50 [2]: < 1000 nM

**Q.** How did the IC50 [1] turn out when `Cc1cc(CNC(=O)c2ccnc(NC(=O)C3CC3)n2)ccc1OC(F)(F)F` [Example 810, 2-(cyclopropanecarboxamido)-N-(3-methyl-4-(trifluoromethoxy)benzyl)pyrimidine-4-carboxamide] was run?
**A.** < 1000 nM

**Q.** And the IC50 [2]?
**A.** < 1000 nM

**Q.** Which results are given for `CCc1cc(CNC(=O)c2cc(C)nc(NC(=O)C(C)C)c2)cnc1OCC(F)F` [Example 911, N-((6-(2,2-difluoroethoxy)-5-ethylpyridin-3-yl)methyl)-2-isobutyramido-6-methylisonicotinamide]?
**A.** IC50 [1]: < 1000 nM; IC50 [2]: < 1000 nM

**Q.** With `Cc1c(CNC(=O)c2ccnc(NC(=O)C(C)C)c2)cccc1C(F)(F)F` [Example 816, 2-isobutyramido-N-(2-methyl-3-(trifluoromethyl)benzyl)isonicotinamide] as the compound, how does the IC50 [1] read?
**A.** < 1000 nM

**Q.** What about the IC50 [2] of the same compound?
**A.** < 1000 nM

**Q.** Which IC50 [1] does the source give for `CC(=O)Nc1cc(C(=O)NCc2cnc(OCC(F)(F)C(F)F)c(C)c2)ccn1` [Example 939, 2-acetamido-N-((5-methyl-6-(2,2,3,3-tetrafluoropropoxy)pyridin-3-yl)methyl)isonicotinamide] here?
**A.** < 1000 nM

**Q.** And the IC50 [2]?
**A.** < 1000 nM

**Q.** For `CC(=O)Nc1cc(C(=O)NCc2ccc(OC(F)(F)F)c(C)c2)ccn1` [Example 804, 2-acetamido-N-(3-methyl-4-(trifluoromethoxy)benzyl)isonicotinamide], which IC50 [1] is on record?
**A.** < 1000 nM

**Q.** And the IC50 [2]?
**A.** < 1000 nM

**Q.** With `CCC(=O)Nc1cc(C(=O)N[C@H](C)c2cccc(C(F)(F)F)c2)cc(C)n1` (single isomer, unassigned) [Example 126] as the compound, how does the IC50 [1] read?
**A.** < 1000 nM

**Q.** And the IC50 [2]?
**A.** < 1000 nM

**Q.** `Cc1cc(C(=O)NC(C)c2ccc(OCC(F)(F)F)nc2)cc(NC(=O)C(C)C)n1` (single isomer, unassigned) [Example 62, 2-isobutyramido-6-methyl-N-(1-(6-(2,2,2-trifluoroethoxy)pyridin-3-yl)ethyl)isonicotinamide] was tested. Which IC50 [1] did it give?
**A.** < 1000 nM

**Q.** What about the IC50 [2] of the same compound?
**A.** < 1000 nM
